Measured values published in US20020026053A1, “Novel 3-(substituted) -2- indolinones compounds and use thereof as inhibitors of protein kinase activity” (priority 1997, published 2002).

What was measured:
FLK-1 receptor = experiment: FLK-1 Assay (cellular/catalytic ELISA, VEGF-stimulated phosphotyrosine); assay type: cell-based; design: concentration or dose not given beside the values
Summary of the method: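 Receptor phosphotyrosine ELISA: Flk-1-expressing NIH3T3 C7#3 cells, starved overnight in 0.1% FBS medium, received compound (1:200 final dilution, 0.5% DMSO) for 2 h at 37 °C, then VEGF. Anti-FLK-1-captured receptor was probed with anti-phosphotyrosine UB40 and peroxidase/ABTS read-out, relative to cells without compound.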

PDGF-R = PDGF-R Assay (cellular ELISA, U1242 cells); assay type: cell-based; design: concentration or dose not given beside the values
Summary of the method: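 Cellular ELISA for receptor autophosphorylation: after 2 hr test-compound treatment of serum-free U1242 cells at 37°C, ligand is added for 5–10 min, cells are lysed (HNTG) and receptor captured by specific antibody. Anti-phosphotyrosine plus secondary antibody with ABTS colour read at 410/630 nm, compared with compound-free control cells.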

SMILES	Flk Kinase % Inhibition (P.110) (FLK-1 receptor)	PDGF Kinase % Inhibition (P.119) (PDGF-R)
Cc1c(Br)cc(Br)c2c1C(=Cc1ccc(O)cc1)C(=O)N2 [10719/H07]	2.4%	
Cc1c(Br)cc(Br)c2c1C(=Cc1ccc(N(C)C)cc1)C(=O)N2 [10719/H08]	11.6%	
Cc1c(Br)cc(Br)c2c1C(=Cc1ccc(F)cc1Cl)C(=O)N2 [10719/H09]	2.5%	
Cc1c(Br)cc(Br)c2c1C(=Cc1cccc([N+](=O)[O-])c1)C(=O)N2 [10719/H10]	−0.7%	
Cc1c(Br)cc(Br)c2c1C(=Cc1ccc(F)cc1C(F)(F)F)C(=O)N2 [10719/H11]	12.3%	
Cc1c(Br)cc(Br)c2c1C(=Cc1c(F)cc(F)cc1F)C(=O)N2 [10720/H02]	9.7%	
COc1cc(O)ccc1C=C1C(=O)Nc2c(Br)cc(Br)c(C)c21 [10720/H03]	1.8%	
N#Cc1ccccc1C=C1C(=O)Nc2ccc(CCCl)cc21 [10735/G07]	17.6%	12.6%
O=C1Nc2ccc(CCCl)cc2C1=Cc1c(F)cccc1F [10735/G08]	10.9%	9.8%
O=C1Nc2ccc(CCCl)cc2C1=Cc1cccc2ccccc12 [10735/G09]	15.9%	2.2%
O=C1Nc2ccc(CCCl)cc2C1=Cc1ccc(Cl)cc1Cl [10735/G10]	6.8%	−8.8%
O=C1Nc2ccc(CCCl)cc2C1=Cc1ccc(-c2ccccc2)cc1 [10735/G11]	10.1%	−5.3%
Cc1ccccc1C=C1C(=O)Nc2c(Br)cc(Br)c(C)c21 [10735/H02]	14.5%	−4.7%
Cc1c(Br)cc(Br)c2c1C(=Cc1ccc(F)c(F)c1)C(=O)N2 [10735/H03]	7.4%	1.2%
Cc1c(Br)cc(Br)c2c1C(=Cc1cc(F)cc(F)c1)C(=O)N2 [10735/H04]	12.8%	1.2%
Cc1c(Br)cc(Br)c2c1C(=Cc1cccc(C(F)(F)F)c1)C(=O)N2 [10735/H05]	29.5%	9.1%
Cc1c(Br)cc(Br)c2c1C(=Cc1cc(C(F)(F)F)cc(C(F)(F)F)c1)C(=O)N2 [10735/H06]	25.9%	6.4%
Cc1c(Br)cc(Br)c2c1C(=Cc1ccccc1C#N)C(=O)N2 [10735/H07]	21.4%	−0.9%
Cc1c(Br)cc(Br)c2c1C(=Cc1c(F)cccc1F)C(=O)N2 [10735/H08]	29.1%	−2.6%
Cc1c(Br)cc(Br)c2c1C(=Cc1cccc3ccccc13)C(=O)N2 [10735/H09]	20.6%	6.4%
Cc1c(Br)cc(Br)c2c1C(=Cc1ccc(Cl)cc1Cl)C(=O)N2 [10735/H10]	24.0%	−0.2%
Cc1c(Br)cc(Br)c2c1C(=Cc1ccc(-c3ccccc3)cc1)C(=O)N2 [10735/H11]	28.3%	1.9%
O=C1Nc2c(Br)cc(Br)cc2C1=Cc1ccc(Cl)cc1 [10736/A02]	−6.0%	24.2%
O=C1Nc2c(Br)cc(Br)cc2C1=Cc1ccccc1C(F)(F)F [10736/A03]	5.7%	31.6%
Cc1cccc(C=C2C(=O)Nc3c(Br)cc(Br)cc32)c1 [10736/A04]	−13.0%	13.2%

SMILES	Flk Kinase % Inhibition (P.110) (FLK-1 receptor)	PDGF Kinase % Inhibition (P.119) (PDGF-R)
Cc1ccc(C=C2C(=O)Nc3c(Br)cc(Br)cc32)cc1 [10736/A05]	−19.4%	8.4%
O=C1Nc2c(Br)cc(Br)cc2C1=Cc1cccc(Cl)c1 [10736/A06]	−18.2%	32.1%
O=C1Nc2c(Br)cc(Br)cc2C1=Cc1cccc(F)c1 [10736/A07]	−12.6%	8.4%
O=C1Nc2c(Br)cc(Br)cc2C1=Cc1ccccc1F [10736/A08]	−13.4%	11.0%
CCc1ccc(C=C2C(=O)Nc3c(Br)cc(Br)cc32)cc1 [10736/A09]	−8.7%	−6.5%
COc1cccc(C=C2C(=O)Nc3c(Br)cc(Br)cc32)c1 [10736/A10]	−11.0%	5.8%
O=C1Nc2c(Br)cc(Br)cc2C1=Cc1ccccc1Cl [10736/A11]	−12.4%	−5.6%
O=C1Nc2ccc(I)cc2C1=Cc1ccc(Cl)cc1 [10736/B02]	1.0%	−10.0%
O=C1Nc2ccc(I)cc2C1=Cc1ccccc1C(F)(F)F [10736/B03]	11.3%	63.2%
Cc1cccc(C=C2C(=O)Nc3ccc(I)cc32)c1 [10736/B04]	3.0%	11.9%
Cc1ccc(C=C2C(=O)Nc3ccc(I)cc32)cc1 [10736/B05]	−0.5%	−3.0%
O=C1Nc2ccc(I)cc2C1=Cc1cccc(Cl)c1 [10736/B06]	3.8%	20.7%
O=C1Nc2ccc(I)cc2C1=Cc1cccc(F)c1 [10736/B07]	4.0%	20.7%
O=C1Nc2ccc(I)cc2C1=Cc1ccccc1F [10736/B08]	5.0%	−0.4%
CCc1ccc(C=C2C(=O)Nc3ccc(I)cc32)cc1 [10736/B09]	8.0%	7.1%
COc1cccc(C=C2C(=O)Nc3ccc(I)cc32)c1 [10736/B10]	2.5%	1.8%
O=C1Nc2ccc(I)cc2C1=Cc1ccccc1Cl [10736/B11]	7.3%	−15.3%
Cc1c(Br)ccc2c1C(=Cc1ccc(Cl)cc1)C(=O)N2 [10736/C02]	−0.9%	2.7%
Cc1c(Br)ccc2c1C(=Cc1ccccc1C(F)(F)F)C(=O)N2 [10736/C03]	6.5%	25.5%
Cc1cccc(C=C2C(=O)Nc3ccc(Br)c(C)c32)c1 [10736/C04]	2.8%	8.4%
Cc1ccc(C=C2C(=O)Nc3ccc(Br)c(C)c32)cc1 [10736/C05]	4.6%	16.7%
Cc1c(Br)ccc2c1C(=Cc1cccc(Cl)c1)C(=O)N2 [10736/C06]	6.2%	26.4%
Cc1c(Br)ccc2c1C(=Cc1cccc(F)c1)C(=O)N2 [10736/C07]	4.4%	14.1%
Cc1c(Br)ccc2c1C(=Cc1ccccc1F)C(=O)N2 [10736/C08]	3.1%	1.4%
